Read-outs that look alike come from different tables or passages of the source.
Tests used:
[1] = target: T1, BRD4 (Homo sapiens, UniProt O60885); assay: NanoBRET BRD4, transient BRD4-NanoLuc in HEK293T cells; format: cell-based; settings: intact HEK293 cells
T1 construct: full-length BRD4 fused to NanoLuc at N terminus; expressed in transfected cells; host or cells: HEK293T
Method in brief: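 BRD4 engagement measured in HEK293T cells transiently expressing N-terminal NanoLuc-BRD4 (20 h), with BRD Tracer-02 at its KD concentration. Cells equilibrated with serially diluted inhibitors for 2 h at 37 °C. Donor 450 nm/acceptor 610 nm BRET read; IC50 from normalized 3-parameter fit.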

[2] = target: T2, BRD4^BD1 (Homo sapiens, UniProt O60885); assay: competitive fluorescence polarization assay, BRD4 BD1 -/+ presenter protein; format: binding; settings: for α BRD4^BD1 (binding cooperativity factor): ratio of binding in absence or presence of FKBP12
T2 construct: to the isolated BD1 and BD2 domains of BRD2, BRD3 and BRD4

[3] = target: T3, His-BRD4^BD1 + eGFP-FKBP12 (Homo sapiens, UniProt O60885+P62942); assay: HTRF ternary complex formation BRD4 BD1 + EGFP-FKBP12; format: binding; settings: eGFP-FKBP12 5 µM, His-BRD4^BD1 100 nM; read-out: HTRF BRD4^BD1 + GFP-FKBP12 Kd
T3 construct: the His6-tag of the respective BD1 or BD2 domain of BRD4 and EGFP-labeled FKBP12

[4] = target: T4, BRD3BD1 (Homo sapiens, UniProt Q15059); assay: competitive FP assay, BRD3 BD1 -/+ FKBP12; format: binding
T4 construct: to the isolated BD1 and BD2 domains of BRD2, BRD3 and BRD4
T4 sequence (Q15059 34-140 limits assumed): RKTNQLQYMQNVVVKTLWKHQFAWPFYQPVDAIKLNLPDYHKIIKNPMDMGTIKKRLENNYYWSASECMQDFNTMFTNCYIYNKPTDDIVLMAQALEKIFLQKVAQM

[5] = target: BRD4 43-463 Y390A (Homo sapiens, UniProt O60885, Y390A); assay: competitive FP assay, BRD4 tandem construct Y390A; format: binding
[6] = tested on: BRD4 43-463 Y390A; assay: competitive FP assay, BRD4 tandem construct Y390A; format: binding
[7] = target: BRD4 43-463 (Homo sapiens, UniProt O60885); assay: competitive FP assay, BRD4 tandem bromo domain construct; format: binding
[8] = tested on: MYC mRNA; assay: quantitative RT-PCR of MYC mRNA, MV4-11; format: cell-based, human; settings: Homo sapiens, 6 h; MV4-11, six hours, without FKBP12 PROTAC; read-out: MYC mRNA levels IC50
[9] = tested on: MV4-11 cells; assay: CellTiter-Glo cell viability, MV4-11; format: cell-based, human; settings: five days, without FKBP12 PROTAC; for IC50: Homo sapiens, MV4-11, 120 h, read-out: Cell toxicity (MV4-11) - FKBP12 PROTAC IC50
[10] = target: T5, BRD4^BD2 (Homo sapiens, UniProt O60885); assay: competitive fluorescence polarization assay, BRD4 BD2 -/+ presenter protein; format: binding; settings: for α BRD4^BD2 (binding cooperativity factor): ratio of binding in absence or presence of FKBP12
T5 construct: to the isolated BD1 and BD2 domains of BRD2, BRD3 and BRD4

[11] = target: T6, BRD2BD1 (Homo sapiens, UniProt P25440); assay: competitive FP assay, BRD2 BD1 -/+ FKBP12; format: binding
T6 construct: to the isolated BD1 and BD2 domains of BRD2, BRD3 and BRD4
T6 sequence (P25440 74-180 limits assumed): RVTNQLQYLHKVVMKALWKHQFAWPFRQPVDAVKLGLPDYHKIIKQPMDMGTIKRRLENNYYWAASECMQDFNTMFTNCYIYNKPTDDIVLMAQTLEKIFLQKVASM

[12] = tested on: BRD4 43-463 Y97A; assay: competitive FP assay, BRD4 tandem construct Y97A; format: binding
[13] = target: T7, BRD3BD2 (Homo sapiens, UniProt Q15059); assay: competitive FP assay, BRD3 BD2 -/+ FKBP12; format: binding
T7 construct: to the isolated BD1 and BD2 domains of BRD2, BRD3 and BRD4
T7 sequence (Q15059 306-415 limits assumed): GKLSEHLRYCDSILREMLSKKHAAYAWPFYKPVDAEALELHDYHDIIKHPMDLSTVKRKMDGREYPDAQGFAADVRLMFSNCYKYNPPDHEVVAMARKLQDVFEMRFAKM

[14] = target: FKBP12 (Homo sapiens, UniProt P62942); assay: competitive fluorescence polarization assay, binding to FKBP12; settings: competitive FP assay
[15] = target: T8, His-BRD4^BD2 + eGFP-FKBP12 (Homo sapiens, UniProt O60885+P62942); assay: HTRF ternary complex formation BRD4 BD2 + EGFP-FKBP12; format: binding; settings: eGFP-FKBP12 5 µM, His-BRD4^BD2 100 nM; read-out: HTRF BRD4^BD2 + GFP-FKBP12 Kd
T8 construct: the His6-tag of the respective BD1 or BD2 domain of BRD4 and EGFP-labeled FKBP12

[16] = target: BRD2BD2 (Homo sapiens, UniProt P25440); assay: competitive FP assay, BRD2 BD2 -/+ FKBP12; format: binding
BRD2BD2, sequence (P25440 344-453 limits assumed): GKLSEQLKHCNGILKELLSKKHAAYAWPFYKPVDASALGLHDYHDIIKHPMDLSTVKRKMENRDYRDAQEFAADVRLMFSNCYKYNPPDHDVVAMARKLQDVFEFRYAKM

[17] = tested on: INA-6 cells; assay: cell viability, INA-6 FKBP12 knockout or NTC; format: cell-based, human; settings: for IC50: Homo sapiens, INA-6
[18] = 15 µM FKBP51FK1, read-out: Binding to BRD4BD1 + FKBP51FK1 Kd
[19] = absence of FKBP12, 2 nM JQ1-FL tracer, read-out: Binding to BRD4^BD1 - FKBP12 Kd
[20] = absence of FKBP51FK1 (SI Table 3), read-out: Binding to BRD4BD1 - FKBP51FK1 Kd
[21] = presence of 15 µM FKBP12, read-out: Binding to BRD4^BD1 + FKBP12 Kd (converted)
[22] = values quoted in rebuttal letter (earlier version of Tab. 1), read-out: binding to BRD4BD1 + FKBP12
[23] = 15 µM FKBP12, read-out: Binding to BRD3BD1 + FKBP12 Kd
[24] = absence of FKBP12, read-out: Binding to BRD3BD1 - FKBP12 Kd
[25] = Binding to BRD4 43-463 Y390A + FKBP12 Kd, 15 µM FKBP12
[26] = Binding to BRD4 43-463 + FKBP12 Kd, 15 µM FKBP12
[27] = Binding to BRD4 43-463 - FKBP12 Kd, absence of FKBP12
[28] = 15 µM FKBP51FK1, read-out: Binding to BRD4BD2 + FKBP51FK1 Kd
[29] = absence of FKBP12, 2 nM JQ1-FL tracer, read-out: Binding to BRD4^BD2 - FKBP12 Kd
[30] = absence of FKBP51FK1 (SI Table 3), read-out: Binding to BRD4BD2 - FKBP51FK1 Kd
[31] = presence of 15 µM FKBP12, read-out: Binding to BRD4^BD2 + FKBP12 Kd (converted)
[32] = 15 µM FKBP12, read-out: Binding to BRD2BD1 + FKBP12 Kd
[33] = absence of FKBP12, read-out: Binding to BRD2BD1 - FKBP12 Kd
[34] = 15 µM FKBP12, read-out: Binding to BRD3BD2 + FKBP12 Kd
[35] = absence of FKBP12, read-out: Binding to BRD3BD2 - FKBP12 Kd
[36] = 15 µM FKBP12, read-out: Binding to BRD2BD2 + FKBP12 Kd
[37] = absence of FKBP12, read-out: Binding to BRD2BD2 - FKBP12 Kd
[38] = FKBP12 knockout cells, read-out: Cell toxicity INA-6 FKBP12 KO IC50
[39] = nontargeted control (NTC) cells, read-out: Cell toxicity INA-6 NTC IC50

Cc1sc2c(c1C)C(c1ccc(Cl)cc1)=NC(CC(=O)NCCOCCn1cc(COCC3CN(C(C)c4ccccn4)C(=O)C4CCCC3N4S(=O)(=O)c3cc(Cl)cc(Cl)c3)nn1)c1nnc(C)n1-2 (centres unmarked) [a1dj]
IC50 [1]: 653 nM
Kd [2, 18]: 680 ± 100 nM
Kd [2, 19]: 470 ± 60 nM
Kd [2, 20]: 250 ± 80 nM
Kd [2, 21]: 39 nM
α BRD4^BD1 (binding cooperativity factor) [2]: 12
Kd [2, 22]: 32 nM
Kd [3]: 15 ± 3 nM
Kd [4, 23]: 25 ± 3 nM
Kd [4, 24]: 290 ± 35 nM
Kd [5, 25]: 9 ± 1 nM
Kd ([5]; absence of FKBP12): 106 ± 7 nM
α BRD4 43-463 Y390A [6]: 12
Kd [7, 26]: 31 ± 2 nM
Kd [7, 27]: 266 ± 16 nM
IC50 [8]: 5 nM
IC50 [9]: 0.09 nM
Cell toxicity (MV4-11) - FKBP12 PROTAC IC50 [9]: sub-nanomolar
Kd [10, 28]: 1000 ± 500 nM
Kd [10, 29]: 400 ± 90 nM
Kd [10, 30]: 150 ± 50 nM
Kd [10, 31]: 90 nM
α BRD4^BD2 (binding cooperativity factor) [10]: 4.4
α BRD2BD1 [11]: 16
Kd [11, 32]: 38 ± 6 nM
Kd [11, 33]: 610 ± 90 nM
α BRD4 43-463 Y97A [12]: 1.2
α BRD3BD2 [13]: 1.1
Kd [13, 34]: 150 ± 30 nM
Kd [13, 35]: 170 ± 50 nM
Kd [14]: 0.4 nM
Kd [15]: 30 ± 7 nM
α BRD2BD2 [16]: 2.9
Kd [16, 36]: 48 ± 17 nM
Kd [16, 37]: 140 ± 65 nM
Cell toxicity INA-6 FKBP12 KO IC50 ([17]; FKBP12 knockout cells): hardly observable
IC50 [17, 38]: 480 nM
IC50 [17, 39]: 0.4 nM
Cell toxicity INA-6 NTC IC50 ([17]; nontargeted control (NTC) cells): sub-nanomolar

Cc1sc2c(c1C)C(c1ccc(Cl)cc1)=NC(CC(=O)N1CCC3(CC1)CC(n1cc(C4CN(Cc5ccccn5)C(=O)C5CCCC4N5S(=O)(=O)c4cc(Cl)cc(Cl)c4)nn1)C3)c1nnc(C)n1-2 (centres unmarked) [a13c]
IC50 [1]: 9060 nM
Kd [2, 18]: 870 ± 100 nM
Kd [2, 19]: 4600 ± 800 nM
Kd [2, 20]: 1500 ± 450 nM
Kd [2, 21]: 35 nM
α BRD4^BD1 (binding cooperativity factor) [2]: 131
Kd [2, 22]: 20 nM
Kd [3]: 13 ± 2 nM
α BRD3BD1 [4]: 46
Kd [4, 23]: 56 ± 5 nM
Kd [4, 24]: 2600 ± 1000 nM
Kd [5, 25]: 15 ± 2 nM
Kd ([5]; absence of FKBP12): 860 ± 140 nM
α BRD4 43-463 Y390A [6]: 57
α BRD4 43-463 [7]: 20
Kd [7, 26]: 39 ± 3 nM
Kd [7, 27]: 790 ± 120 nM
IC50 [8]: 2.8 nM
IC50 [9]: 7.7 nM
Kd [10, 28]: 190 ± 30 nM
Kd [10, 29]: 2300 ± 400 nM
Kd [10, 30]: 1600 ± 400 nM
Kd [10, 31]: 1900 nM
α BRD2BD1 [11]: 34
Kd [11, 32]: 100 ± 14 nM
Kd [11, 33]: 3400 ± 1600 nM
α BRD4 43-463 Y97A [12]: 1.2
α BRD3BD2 [13]: 0.3
Kd [13, 34]: 3000 ± 350 nM
Kd [13, 35]: 950 ± 100 nM
Kd [14]: 1.7 nM
Kd [15]: 300 ± 30 nM
α BRD2BD2 [16]: 1.6
Kd [16, 36]: 600 ± 100 nM
Kd [16, 37]: 960 ± 350 nM
Cell toxicity INA-6 FKBP12 KO IC50 ([17]; FKBP12 knockout cells): hardly observable
IC50 [17, 38]: > 1600 nM
IC50 [17, 39]: 13 nM

Cc1sc2c(c1C)C(c1ccc(C#CCNC(=O)COCCn3cc(C4CN(Cc5ccccn5)C(=O)C5CCCC4N5S(=O)(=O)c4cc(Cl)cc(Cl)c4)nn3)cc1)=NC(CC(=O)OC(C)(C)C)c1nnc(C)n1-2 (centres unmarked) [b3c]
IC50 [1]: 194 nM
Kd [2, 18]: 50 ± 17 nM
Kd [2, 19]: 130 ± 20 nM
Kd [2, 20]: 73 ± 20 nM
Kd [2, 21]: 8 nM
α BRD4^BD1 (binding cooperativity factor) [2]: 16
Kd [3]: 1 ± 0.6 nM
α BRD3BD1 [4]: 2.7
Kd [4, 23]: 13 ± 3 nM
Kd [4, 24]: 35 ± 7 nM
Kd [5, 25]: 1.7 ± 0.5 nM
Kd ([5]; absence of FKBP12): 25 ± 4 nM
α BRD4 43-463 Y390A [6]: 15
α BRD4 43-463 [7]: 5.6
Kd [7, 26]: 14 ± 2 nM
Kd [7, 27]: 79 ± 5 nM
IC50 [8]: 2 nM
IC50 [9]: 0.06 nM
Cell toxicity (MV4-11) - FKBP12 PROTAC IC50 [9]: sub-nanomolar
Kd [10, 28]: 250 ± 70 nM
Kd [10, 29]: 150 ± 20 nM
Kd [10, 30]: 120 ± 40 nM
Kd [10, 31]: 13 nM
α BRD4^BD2 (binding cooperativity factor) [10]: 12
α BRD2BD1 [11]: 8.2
Kd [11, 32]: 9 ± 4 nM
Kd [11, 33]: 74 ± 20 nM
α BRD4 43-463 Y97A [12]: 8.1
α BRD3BD2 [13]: 3.8
Kd [13, 34]: 26 ± 6 nM
Kd [13, 35]: 100 ± 30 nM
Kd [14]: 3.7 nM
Kd [15]: 8 ± 3 nM
α BRD2BD2 [16]: 38
Kd [16, 36]: 4 ± 2 nM
Kd [16, 37]: 150 ± 50 nM
IC50 [17, 38]: 90 nM
IC50 [17, 39]: 1.8 nM
concentration inducing reduced cell viability in FKBP12-negative cells ([17]; INA-6 FKBP12 knockout): ≥ 100 nM
